Target: T1, MAO-A (Mus musculus, UniProt Q64133)
T1 sequence (Q64133 1-526): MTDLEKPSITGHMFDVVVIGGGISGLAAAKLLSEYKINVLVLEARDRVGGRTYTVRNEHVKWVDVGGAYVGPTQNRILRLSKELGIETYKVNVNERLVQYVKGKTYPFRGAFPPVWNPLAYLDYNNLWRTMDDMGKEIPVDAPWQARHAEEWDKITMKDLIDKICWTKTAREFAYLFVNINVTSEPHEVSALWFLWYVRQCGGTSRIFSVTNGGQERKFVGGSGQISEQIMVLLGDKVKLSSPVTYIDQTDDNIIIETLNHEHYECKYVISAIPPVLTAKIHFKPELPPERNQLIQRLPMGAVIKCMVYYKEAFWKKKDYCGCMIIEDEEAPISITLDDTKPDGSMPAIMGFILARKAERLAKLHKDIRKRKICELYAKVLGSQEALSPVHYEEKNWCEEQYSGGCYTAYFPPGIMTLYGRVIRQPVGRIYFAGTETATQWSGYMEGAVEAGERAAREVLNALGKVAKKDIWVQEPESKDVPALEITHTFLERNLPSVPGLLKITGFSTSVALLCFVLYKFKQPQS
Assay: Amplex Red MAO-A activity assay
Format: biochemical

C#CCN(C)CCCOc1ccc(Cl)cc1Cl [clorgyline]
Amplex Red MAO-A activity assay (tyramine substrate) in mouse brain homogenates,: 1 µM
